In ChEMBL document CHEMBL4665642, “Anticancer profile of newly synthesized BRAF inhibitors possess 5-(pyrimidin-4-yl)imidazo[2,1-b]thiazole scaffold” (Bioorg Med Chem, 2019):

What was measured:
Type in all cases: functional
Conditions in all cases: read-out: Activity
MDA-MB-468 = assay: Cytotoxicity against human MDA-MB-468 cells assessed as cell viability at 10 uM incubated for 48 hrs by sulforhodamine B assay relative to control
BT-549 = assay: Cytotoxicity against human BT-549 cells assessed as cell viability at 10 uM incubated for 48 hrs by sulforhodamine B assay relative to control
MDA-MB-231 = assay: Cytotoxicity against human MDA-MB-231 cells assessed as cell viability at 10 uM incubated for 48 hrs by sulforhodamine B assay relative to control
MCF7 = assay: Cytotoxicity against human MCF7 cells assessed as cell viability at 10 uM incubated for 48 hrs by sulforhodamine B assay relative to control
DU-145 = assay: Cytotoxicity against human DU-145 cells assessed as cell viability at 10 uM incubated for 48 hrs by sulforhodamine B assay relative to control
PC-3 = assay: Cytotoxicity against human PC-3 cells assessed as cell viability at 10 uM incubated for 48 hrs by sulforhodamine B assay relative to control
TK-10 = assay: Cytotoxicity against human TK-10 cells assessed as cell viability at 10 uM incubated for 48 hrs by sulforhodamine B assay relative to control
SN12C = assay: Cytotoxicity against human SN12C cells assessed as cell viability at 10 uM incubated for 48 hrs by sulforhodamine B assay relative to control
CAKI-1 = assay: Cytotoxicity against human CAKI-1 cells assessed as cell viability at 10 uM incubated for 48 hrs by sulforhodamine B assay relative to control
ACHN = assay: Cytotoxicity against human ACHN cells assessed as cell viability at 10 uM incubated for 48 hrs by sulforhodamine B assay relative to control
786-0 = assay: Cytotoxicity against human 786-0 cells assessed as cell viability at 10 uM incubated for 48 hrs by sulforhodamine B assay relative to control
SK-OV-3 = assay: Cytotoxicity against human SK-OV-3 cells assessed as cell viability at 10 uM incubated for 48 hrs by sulforhodamine B assay relative to control
NCI/ADR-RES = assay: Cytotoxicity against human NCI/ADR-RES cells assessed as cell viability at 10 uM incubated for 48 hrs by sulforhodamine B assay relative to control
OVCAR-8 = assay: Cytotoxicity against human OVCAR-8 cells assessed as cell viability at 10 uM incubated for 48 hrs by sulforhodamine B assay relative to control
OVCAR-4 = assay: Cytotoxicity against human OVCAR-4 cells assessed as cell viability at 10 uM incubated for 48 hrs by sulforhodamine B assay relative to control
OVCAR-3 = assay: Cytotoxicity against human OVCAR-3 cells assessed as cell viability at 10 uM incubated for 48 hrs by sulforhodamine B assay relative to control
IGROV-1 = assay: Cytotoxicity against human IGROV-1 cells assessed as cell viability at 10 uM incubated for 48 hrs by sulforhodamine B assay relative to control
SK-MEL-28 = assay: Cytotoxicity against human SK-MEL-28 cells assessed as cell viability at 10 uM incubated for 48 hrs by sulforhodamine B assay relative to control
MDA-MB-435 = assay: Cytotoxicity against human MDA-MB-435 cells assessed as cell viability at 10 uM incubated for 48 hrs by sulforhodamine B assay relative to control
M14 = assay: Cytotoxicity against human M14 cells assessed as cell viability at 10 uM incubated for 48 hrs by sulforhodamine B assay relative to control
CCRF-CEM = assay: Cytotoxicity against human CCRF-CEM cells assessed as cell viability at 10 uM incubated for 48 hrs by sulforhodamine B assay relative to control
HL-60(TB) = assay: Cytotoxicity against human HL-60(TB) cells assessed as cell viability at 10 uM incubated for 48 hrs by sulforhodamine B assay relative to control
K562 = assay: Cytotoxicity against human K562 cells assessed as cell viability at 10 uM incubated for 48 hrs by sulforhodamine B assay relative to control
RPMI-8226 = assay: Cytotoxicity against human RPMI-8226 cells assessed as cell viability at 10 uM incubated for 48 hrs by sulforhodamine B assay relative to control
SR = assay: Cytotoxicity against human SR cells assessed as cell viability at 10 uM incubated for 48 hrs by sulforhodamine B assay relative to control
A549 = assay: Cytotoxicity against human A549 cells assessed as cell viability at 10 uM incubated for 48 hrs by sulforhodamine B assay relative to control
HOP-62 = assay: Cytotoxicity against human HOP-62 cells assessed as cell viability at 10 uM incubated for 48 hrs by sulforhodamine B assay relative to control
HOP-92 = assay: Cytotoxicity against human HOP-92 cells assessed as cell viability at 10 uM incubated for 48 hrs by sulforhodamine B assay relative to control
NCI-H226 = assay: Cytotoxicity against human NCI-H226 cells assessed as cell viability at 10 uM incubated for 48 hrs by sulforhodamine B assay relative to control
NCI-H23 = assay: Cytotoxicity against human NCI-H23 cells assessed as cell viability at 10 uM incubated for 48 hrs by sulforhodamine B assay relative to control
NCI-H322M = assay: Cytotoxicity against human NCI-H322M cells assessed as cell viability at 10 uM incubated for 48 hrs by sulforhodamine B assay relative to control
NCI-H460 = assay: Cytotoxicity against human NCI-H460 cells assessed as cell viability at 10 uM incubated for 48 hrs by sulforhodamine B assay relative to control
COLO 205 = assay: Cytotoxicity against human COLO 205 cells assessed as cell viability at 10 uM incubated for 48 hrs by sulforhodamine B assay relative to control
HCT-15 = assay: Cytotoxicity against human HCT-15 cells assessed as cell viability at 10 uM incubated for 48 hrs by sulforhodamine B assay relative to control
HCT-29 = assay: Cytotoxicity against human […] cells assessed as cell viability at 10 uM incubated for 48 hrs by sulforhodamine B assay relative to control
KM12 = assay: Cytotoxicity against human KM12 cells assessed as cell viability at 10 uM incubated for 48 hrs by sulforhodamine B assay relative to control
SF-268 = assay: Cytotoxicity against human SF-268 cells assessed as cell viability at 10 uM incubated for 48 hrs by sulforhodamine B assay relative to control
SF-295 = assay: Cytotoxicity against human SF-295 cells assessed as cell viability at 10 uM incubated for 48 hrs by sulforhodamine B assay relative to control
SNB-19 = assay: Cytotoxicity against human SNB-19 cells assessed as cell viability at 10 uM incubated for 48 hrs by sulforhodamine B assay relative to control
SNB-75 = assay: Cytotoxicity against human SNB-75 cells assessed as cell viability at 10 uM incubated for 48 hrs by sulforhodamine B assay relative to control
LOX IMVI = assay: Cytotoxicity against human LOX IMVI cells assessed as cell viability at 10 uM incubated for 48 hrs by sulforhodamine B assay relative to control

O=C(NCCNc1nccc(-c2c(-c3cccc(F)c3)nc3sccn23)n1)c1ccc(C(F)(F)F)cc1
viability at 10 µM (MDA-MB-468): 77.6% | viability at 10 µM (BT-549): 78.9% | viability at 10 µM (MDA-MB-231): 74.7% | viability at 10 µM (MCF7): 46.3% | viability at 10 µM (DU-145): 83.7% | viability at 10 µM (PC-3): 61% | viability at 10 µM (TK-10): 86.1% | viability at 10 µM (SN12C): 66.6% | viability at 10 µM (CAKI-1): 55% | viability at 10 µM (ACHN): 42.6% | viability at 10 µM (786-0): 65.7% | viability at 10 µM (SK-OV-3): 70.2% | viability at 10 µM (NCI/ADR-RES): 73.1% | viability at 10 µM (OVCAR-8): 54.8% | viability at 10 µM (OVCAR-4): 81.8% | viability at 10 µM (OVCAR-3): 76.5% | viability at 10 µM (IGROV-1): 27.8% | viability at 10 µM (SK-MEL-28): 82.1% | viability at 10 µM (MDA-MB-435): 47.7% | viability at 10 µM (M14): 59.4% | viability at 10 µM (CCRF-CEM): 53.5% | viability at 10 µM (HL-60(TB)): 103% | viability at 10 µM (K562): 61.8% | viability at 10 µM (RPMI-8226): 52.7% | viability at 10 µM (SR): 68.9% | viability at 10 µM (A549): 62.1% | viability at 10 µM (HOP-62): 89.9% | viability at 10 µM (HOP-92): 86.7% | viability at 10 µM (NCI-H226): 64.8% | viability at 10 µM (NCI-H23): 80% | viability at 10 µM (NCI-H322M): 81.8% | viability at 10 µM (NCI-H460): 73.2% | viability at 10 µM (COLO 205): 32.7% | viability at 10 µM (HCT-15): 53.1% | viability at 10 µM (HCT-29): 50.2% | viability at 10 µM (KM12): 75.1% | viability at 10 µM (SF-268): 64.9% | viability at 10 µM (SF-295): 74.4% | viability at 10 µM (SNB-19): 86.8% | viability at 10 µM (SNB-75): 73.7% | viability at 10 µM (LOX IMVI): 64.8%

O=S(=O)(NCCCNc1nccc(-c2c(-c3cccc(F)c3)nc3sccn23)n1)c1ccc(Cl)cc1
viability at 10 µM (MDA-MB-468): 63.6% | viability at 10 µM (BT-549): 85.4% | viability at 10 µM (MDA-MB-231): 77.9% | viability at 10 µM (MCF7): 61.7% | viability at 10 µM (DU-145): 78.2% | viability at 10 µM (PC-3): 52% | viability at 10 µM (TK-10): 99% | viability at 10 µM (SN12C): 65.9% | viability at 10 µM (CAKI-1): 63% | viability at 10 µM (ACHN): 60% | viability at 10 µM (786-0): 83.6% | viability at 10 µM (SK-OV-3): 78.1% | viability at 10 µM (NCI/ADR-RES): 67.4% | viability at 10 µM (OVCAR-8): 50.2% | viability at 10 µM (OVCAR-4): 61.4% | viability at 10 µM (OVCAR-3): 79.8% | viability at 10 µM (IGROV-1): 42.7% | viability at 10 µM (SK-MEL-28): 92.3% | viability at 10 µM (MDA-MB-435): 53.1% | viability at 10 µM (M14): 66.1% | viability at 10 µM (CCRF-CEM): 46.6% | viability at 10 µM (HL-60(TB)): 106% | viability at 10 µM (K562): 31.7% | viability at 10 µM (RPMI-8226): 55.3% | viability at 10 µM (SR): 92.9% | viability at 10 µM (A549): 66.9% | viability at 10 µM (HOP-62): 102% | viability at 10 µM (HOP-92): 85.7% | viability at 10 µM (NCI-H226): 46.9% | viability at 10 µM (NCI-H23): 86% | viability at 10 µM (NCI-H322M): 93.2% | viability at 10 µM (NCI-H460): 75.4% | viability at 10 µM (COLO 205): 41.3% | viability at 10 µM (HCT-15): 49.6% | viability at 10 µM (HCT-29): 36.9% | viability at 10 µM (KM12): 72.7% | viability at 10 µM (SF-268): 76.3% | viability at 10 µM (SF-295): 87.1% | viability at 10 µM (SNB-19): 93% | viability at 10 µM (SNB-75): 102% | viability at 10 µM (LOX IMVI): 60.3%
